Activity calls are given as the source filed them. No cut-off for these calls is given here.
Experiments:
[1] = test system: A549; experiment: cells; details: Homo sapiens, A549, 48 h
[2] = test system: HepG2; experiment: cells; details: Homo sapiens, HepG2, 48 h
[3] = test system: MDA-MB-231; experiment: Antiproliferative activity against human MDA-MB-231 cells after 48 hrs by MTT assay; details: MDA-MB-231, 48 h
[4] = test system: RKO; experiment: Antiproliferative activity against human RKO cells after 48 hrs by MTT assay
[5] = test system: LoVo; experiment: Antiproliferative activity against human LoVo cells after 48 hrs by MTT assay
[6] = test system: Mus musculus; experiment: Toxicity in BALB/c nude mouse xenografted with human A549 cells assessed as change in body weight at 30 mg/kg, ip; type: organism-based; details: in vivo
[7] = test system: A549; experiment: Antitumor activity against human A549 cells xenografted in BALB/c nude mouse assessed as tumor growth inhibition at 30 mg/kg, ip; type: functional; details: read-out: TGI
[8] = Metabolic stability in Sprague-Dawley rat liver microsomes assessed as compound remaining after 60 mins in presence of NADPH by UV-based HPLC-MS/MS analysis; type: ADME, microsome; details: read-out: Stability
[9] = Metabolic stability in Sprague-Dawley rat liver microsomes assessed as compound remaining after 30 mins in presence of NADPH by UV-based HPLC-MS/MS analysis; type: ADME, microsome; details: read-out: Stability
[10] = Metabolic stability in Sprague-Dawley rat liver microsomes assessed as compound remaining after 120 mins in presence of NADPH by UV-based HPLC-MS/MS analysis; type: ADME, microsome; details: read-out: Stability
[11] = test system: Liver; experiment: (§1) Metabolic stability in Sprague-Dawley rat liver microsomes assessed as compound remaining after 150 mins in presence of NADPH by UV-based HPLC-MS/MS analysis; type: ADME, microsome; details: microsomes, 2.5 h
[12] = Metabolic stability in Sprague-Dawley rat liver microsomes assessed as compound remaining after 90 mins in presence of NADPH by UV-based HPLC-MS/MS analysis; type: ADME, microsome; details: read-out: Stability
[13] = Inhibition of porcine brain tubulin polymerization measured every 60 seconds for 90 mins by DAPI staining-based fluorescence assay; set-up: species or system Sus scrofa
[14] = Antiproliferative activity against human HepG2/DOX cells after 48 hrs by MTT assay; type: functional, cell-based
[15] = test system: A549; experiment: Induction of microtubule disruption in human A549 cells at 5 to 10 nM after 8 to 24 hrs by Hoechst 33342 staining-based laser scanning confocal immunofluorescence microscopic analysis; type: cell-based
[16] = as §1; type: ADME, microsome; details: Sprague-Dawley, liver microsomes, read-out: Stability
[17] = test system: A549/CDDP; experiment: Antiproliferative activity against human A549/CDDP cells after 48 hrs by MTT assay; type: functional, cell-based
[18] = Half life in Sprague-Dawley rat by UV-based HPLC-MS/MS analysis; type: ADME; details: in vivo
[19] = test system: HCT-116; experiment: cells; details: Homo sapiens, HCT-116, 48 h
[20] = test system: MGC-803; experiment: Antiproliferative activity against human MGC803 cells after 48 hrs by MTT assay; details: MGC-803, 48 h
[21] = test system: A2780; experiment: cells; details: Homo sapiens, A2780, 48 h
Description: Antiproliferative activity against human A2780 cells after 48 hrs by MTT assay

[22] = Resistance index, ratio of IC50 for human HepG2/DOX cells to IC50 for human HepG2 cells; type: functional
[23] = test system: HeLa; experiment: cells; details: Homo sapiens, 48 h
[24] = test system: MCF7; experiment: cells; details: Homo sapiens, MCF7, 48 h
[25] = Resistance index, ratio of IC50 for human A549/CDDP cells to IC50 for human A549 cells; type: functional

Row | Structure (SMILES) | IC50 [1] [nM] | IC50 [2] [nM] | IC50 [3] [nM] | IC50 [4] [nM] | IC50 [5] [nM] | further results
1 | COc1cc(C(=O)c2ccc(OC)c(OC)c2OC)cc([Se]C)c1OC | 2750 | 4340 | 4260 | 874 | 523 | 
2 | COc1cc(C(=O)c2ccc([Se]C)cc2)cc(OC)c1OC | 69 | 77 | 65 | 66 | 296 | 
3 | C=C(c1ccc(OC)c(C)c1)c1cc(OC)c(OC)c([Se]C)c1 | 141 | 607 | 599 | 245 | 496 | 
4 | C=C(c1ccc(OC)c(OP(=O)([O-])[O-])c1)c1cc(OC)c(OC)c([Se]C)c1.[Na+].[Na+] |  |  |  |  |  | Activity [6]: Non-Toxic; inhibition in vivo at 30 mg/kg [7]: 72.9%
5 | COc1ccc(/C=C\c2cc(OC)c(OC)c(OC)c2)cc1O [COMBRETASTATIN A4] |  |  |  |  |  | remaining at 1 h [8]: 26.4%; remaining at 0.5 h [9]: 67.2%; remaining at 2 h [10]: 19.9%; Stability [11]: Nd(Unstable); remaining at 1.5 h [12]: 22.5%
6 | COc1ccc(C(=O)c2cc(OC)c(OC)c([Se]C)c2)cc1 | 31 | 85 | 57 | 47 | 145 | 
7 | C=C(c1cc(OC)c(OC)c(OC)c1)c1cc(OC)c(OC)c([Se]C)c1 | 473 | 1350 | 3320 | 3520 | 3140 | 
8 | COc1ccc(C(=O)c2cc(OC)c(OC)c([Se]C)c2)cc1OC | 285 | 1090 | 1020 | 306 | 766 | 
9 | COc1ccc(C(=O)c2cc(OC)c(OC)c([Se]C)c2)cc1F | 33 | 47 | 34 | 59 | 57 | 
10 | COc1ccc(/C=C\c2cc(OC)c(OC)c(OC)c2)cc1OP(=O)(O)O [FOSBRETABULIN DISODIUM] |  |  |  |  |  | inhibition in vivo at 30 mg/kg [7]: 47.6%
11 | C=C(c1ccc(OC)c(Br)c1)c1cc(OC)c(OC)c([Se]C)c1 | 236 | 691 | 667 | 343 | 171 | 
12 | C=C(c1ccc(OC)c(Cl)c1)c1cc(OC)c(OC)c([Se]C)c1 | 196 | 298 | 83 | 451 | 254 | 
13 | COc1cc(C(=O)c2cc(OC)c(OC)c([Se]C)c2)cc(OC)c1OC | 172 | 288 | 741 | 235 | 921 | 
14 | C=C(c1ccc([Se]C)cc1)c1cc(OC)c(OC)c(OC)c1 | 97 | 386 | 178 | 216 | 279 | 
15 | C=C(c1ccc(OC)cc1)c1cc(OC)c(OC)c([Se]C)c1 | 72 | 126 | 96 | 107 | 91 | 
16 | COc1ccc(C(=O)c2cc(OC)c(OC)c([Se]C)c2)cc1Cl | 949 | 1530 | 865 | 253 | 189 | 
17 | COc1ccc(C(=O)c2cc(OC)c(OC)c([Se]C)c2)cc1O | 55 | 31 | 24 | 79 | 53 | 
18 | C=C(c1ccc(OC)c(OC)c1)c1cc(OC)c(OC)c([Se]C)c1 | 265 | 473 | 344 | 216 | 299 | 
19 | C=C(c1ccc(OC)c(O)c1)c1cc(OC)c(OC)c(OC)c1 | 3.5 | 18.3 | 8.5 | 3.8 | 3.7 | IC50 [13]: 2760 nM; IC50 [14]: 38.6 nM; remaining at 1 h [8]: 77.1%; Activity [15]: Active; remaining at 0.5 h [9]: 85.7%; remaining at 2 h [10]: 49.8%; remaining at 2.5 h [16]: 34.3%; IC50 [17]: 69.1 nM; half-life [18]: 1.7 h; IC50 [19]: 24 nM; remaining at 1.5 h [12]: 67.3%; IC50 [20]: 19.8 nM; IC50 [21]: 26 nM; Ratio IC50 [22]: 2.1; IC50 [23]: 6 nM; IC50 [24]: 48 nM; Ratio IC50 [25]: 19.7
20 | COc1ccc(C(=O)c2cc(OC)c(OC)c([Se]C)c2)cc1C | 1730 | 2300 | 997 | 5280 | 3150 | 
21 | C=C(c1ccc(OC)c(F)c1)c1cc(OC)c(OC)c([Se]C)c1 | 29 | 87 | 24 | 82 | 33 | 
22 | C=C(c1ccc(OC)c(OP(=O)(O)O)c1)c1cc(OC)c(OC)c(OC)c1 |  |  |  |  |  | inhibition in vivo at 30 mg/kg [7]: 52.2%
23 | C=C(c1cc(OC)c(OC)c([Se]C)c1)c1ccc(OC)c(OC)c1OC | 1380 | 6300 | 3820 | 1040 | 128 | 
24 | COc1ccc(C(=O)c2cc(OC)c(OC)c([Se]C)c2)cc1Br | 368 | 655 | 435 | 169 | 1750 | 
25 | COc1ccc(C(=O)c2cc(OC)c(OC)c(OC)c2)cc1O [PHENSTATIN] | 179 | 108 | 62 | 72 | 122 | 
